According to patent US8952024B2, “Herbicidal pyrimidone derivatives” (E I du Pont de Nemours and Company, priority 2009, dated 2015):
Read-outs that look alike come from different tables or passages of the source.

What was measured:
Assay type in all cases: in vivo
[1] = test system: winter barley (Hordeum vulgare); assay: Test B postemergence plant response; conditions: Hordeum vulgare, post-emergence, Postemergence, read-out: Plant response rating, Barley
Summary of the method: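 Plants grown in peat/vermiculite medium were sprayed postemergence at 2–18 cm height (1- to 4-leaf stage). After 13–15 days in the greenhouse, response was rated visually against untreated controls on a 0–100 scale (0 no effect, 100 complete control).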

[2] = test system: ducksalad (Heteranthera limosa); assay: Test B flooded paddy test
Summary of the method: (§1)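 Rice, umbrella sedge, ducksalad and barnyardgrass were grown to the 2-leaf stage, flooded to 3 cm, and compound was applied directly to the paddy water, with that depth kept throughout. After 13 to 15 days in the greenhouse, plants were visually rated against controls on a 0 (no effect) to 100 (complete control) scale.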

[3] = test system: rice (Oryza sativa); assay: Test B flooded paddy test
Summary of the method: as §1

[4] = test system: umbrella sedge (Cyperus difformis); assay: Test B flooded paddy test
Summary of the method: as §1

[5] = test system: barnyardgrass (Echinochloa crus-galli); assay: Test B flooded paddy test
Summary of the method: as §1

[6] = test system: wheat (Triticum aestivum); assay: Test A pre-/postemergence plant response; conditions: Triticum aestivum, 240 h; for plant injury at 125 g/ha: 125 g ai/ha; for plant injury at 500 g/ha: 500 g ai/ha
Summary of the method: (§2)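 Seeds planted in loam soil/sand blend; test chemicals in non-phytotoxic solvent mixture with surfactant applied as directed soil spray preemergence and, concurrently, postemergence to plants 2–10 cm tall at one- to two-leaf stage. Greenhouse ~10 days; visual injury vs untreated controls, 0 (no effect) to 100 (complete control).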

[7] = test system: velvetleaf (Abutilon theophrasti); assay: Test A pre-/postemergence plant response; conditions: Abutilon theophrasti, 240 h; for pest or weed control at 125 g/ha: 125 g ai/ha; for pest or weed control at 500 g/ha: 500 g ai/ha
Summary of the method: as §2

[8] = test system: giant foxtail (Setaria faberii); assay: Test A pre-/postemergence plant response; conditions: Setaria faberi, 240 h; for pest or weed control at 125 g/ha: 125 g ai/ha; for pest or weed control at 500 g/ha: 500 g ai/ha
Summary of the method: as §2

[9] = test system: large crabgrass (Digitaria sanguinalis); assay: Test A pre-/postemergence plant response; conditions: Digitaria sanguinalis, 240 h; for pest or weed control at 125 g/ha: 125 g ai/ha; for pest or weed control at 500 g/ha: 500 g ai/ha
Summary of the method: as §2

[10] = test system: pigweed (Amaranthus retroflexus); assay: Test A pre-/postemergence plant response; conditions: Amaranthus retroflexus, 240 h; for pest or weed control at 125 g/ha: 125 g ai/ha; for pest or weed control at 500 g/ha: 500 g ai/ha
Summary of the method: as §2

[11] = test system: morningglory (Ipomoea spp.); assay: Test A pre-/postemergence plant response; conditions: Ipomoea, 240 h; for pest or weed control at 125 g/ha: 125 g ai/ha; for pest or weed control at 500 g/ha: 500 g ai/ha
Summary of the method: as §2

[12] = test system: corn (Zea mays); assay: Test A pre-/postemergence plant response; conditions: Zea mays, 240 h; for Corn plant response rating (crop injury, 0 = no effect, 100 = complete kill) at 125 g/ha: 125 g ai/ha
Summary of the method: as §2

[13] = test system: barnyardgrass (Echinochloa crus-galli); assay: Test A pre-/postemergence plant response; conditions: Echinochloa crus-galli, 240 h; for pest or weed control at 125 g/ha: 125 g ai/ha; for pest or weed control at 500 g/ha: 500 g ai/ha
Summary of the method: as §2

[14] = Flood, 31 g ai/ha, scale 0 to 100 (0 no effect, 100 complete control)
[15] = pre-emergence, Preemergence, 0 to 100 scale, 0 = no effect, 100 = complete control, read-out: Plant response rating, Wheat
[16] = pre-emergence, Preemergence, 0 to 100 scale, 0 = no effect, 100 = complete control, read-out: Plant response rating, Velvetleaf
[17] = pre-emergence, Preemergence, 0 to 100 scale, 0 = no effect, 100 = complete control, read-out: Plant response rating, Foxtail, Giant
[18] = pre-emergence, Preemergence, 0 to 100 scale, 0 = no effect, 100 = complete control, read-out: Plant response rating, Crabgrass, Large
[19] = pre-emergence, Preemergence, 0 to 100 scale, 0 = no effect, 100 = complete control, read-out: Plant response rating, Pigweed
[20] = pre-emergence, Preemergence, 0 to 100 scale, 0 = no effect, 100 = complete control, read-out: Plant response rating, Morningglory
[21] = pre-emergence, Preemergence, 0 to 100 scale, 0 = no effect, 100 = complete control, read-out: Plant response rating, Barnyardgrass

`COCCn1c(-c2cc(F)cc(F)c2)ncc(C(=O)C2=C(O)C3CCC(C3)C2=O)c1=O` (stereo not shown) [Compound 243, 2-(3,5-difluorophenyl)-5-[(2-hydroxy-4-oxobicyclo[3.2.1]oct-2-en-3-yl)carbonyl]-3-(2-methoxyethyl)-4(3H)-pyrimidinone] was tested, and the plant injury at 31 g/ha ([1]; 31 g ai/ha, 0 to 100 scale (0 no effect, 100 complete control)) was 60%, the plant injury at 62 g/ha ([1]; 62 g ai/ha, scale 0 to 100 (0 no effect, 100 complete control)) was 90% and the plant injury at 125 g/ha ([1]; 125 g ai/ha, scale 0 (no effect) to 100 (complete control), 13 to 15 days) was 95%. For the same molecule, the plant injury at 250 g/ha ([1]; 250 g ai/ha, scale 0 to 100 (0 no effect, 100 complete control), 13 to 15 days) was 95%, the “Ducksalad plant response rating” value [2, 14] was 0 and the pest or weed control at 250 g/ha ([2]; Heteranthera limosa, 360 h, 250 g ai/ha, flooded paddy test, visual rating on 0 to 100 scale (0 no effect, 100 complete control) after 13 to 15 days, read-out: Plant response rating, Flood, Ducksalad) was 100%. The pest or weed control at 62 g/ha ([2]; Heteranthera limosa, 360 h, Flood (flooded paddy test), 62 g ai/ha, scale of 0 to 100 where 0 is no effect and 100 is complete control, 13 to 15 days, read-out: Plant response rating, Ducksalad) was 85%, the pest or weed control at 125 g/ha ([2]; Heteranthera limosa, 360 h, Flood (flooded paddy test), 125 g ai/ha, scale 0 to 100, 0 is no effect, 100 is complete control, 13 to 15 days, read-out: Plant response rating, Ducksalad) was 100% and the “Rice plant response rating” value [3, 14] was 45. The plant injury at 250 g/ha ([3]; Oryza sativa, 250 g ai/ha, flooded paddy test, visual rating on 0 to 100 scale (0 no effect, 100 complete control) after 13 to 15 days, read-out: Plant response rating, Flood, Rice) was 75%, the plant injury at 62 g/ha ([3]; Oryza sativa, Flood (flooded paddy test), 62 g ai/ha, scale of 0 to 100 where 0 is no effect and 100 is complete control, 13 to 15 days, read-out: Plant response rating, Rice) was 60% and the plant injury at 125 g/ha ([3]; Oryza sativa, Flood (flooded paddy test), 125 g ai/ha, scale 0 to 100, 0 is no effect, 100 is complete control, 13 to 15 days, read-out: Plant response rating, Rice) was 95%. The pest or weed control at 250 g/ha ([4]; Cyperus difformis, 360 h, 250 g ai/ha, flooded paddy test, visual rating on 0 to 100 scale (0 no effect, 100 complete control) after 13 to 15 days, read-out: Plant response rating, Flood, Sedge, Umbrella) was 100%, the pest or weed control at 62 g/ha ([4]; Cyperus difformis, 360 h, Flood (flooded paddy test), 62 g ai/ha, scale of 0 to 100 where 0 is no effect and 100 is complete control, 13 to 15 days, read-out: Plant response rating, Sedge, Umbrella) was 90% and the pest or weed control at 125 g/ha ([4]; Cyperus difformis, 360 h, Flood (flooded paddy test), 125 g ai/ha, scale 0 to 100, 0 is no effect, 100 is complete control, 13 to 15 days, read-out: Plant response rating, Sedge, Umbrella) was 100%. The “Sedge, Umbrella plant response rating” value [4, 14] was 0, the pest or weed control at 250 g/ha ([5]; Echinochloa crus-galli, 360 h, 250 g ai/ha, flooded paddy test, visual rating on 0 to 100 scale (0 no effect, 100 complete control) after 13 to 15 days, read-out: Plant response rating, Flood, Barnyardgrass) was 85% and the pest or weed control at 62 g/ha ([5]; Echinochloa crus-galli, 360 h, Flood (flooded paddy test), 62 g ai/ha, scale of 0 to 100 where 0 is no effect and 100 is complete control, 13 to 15 days, read-out: Plant response rating, Barnyardgrass) was 30%. The pest or weed control at 125 g/ha ([5]; Echinochloa crus-galli, 360 h, Flood (flooded paddy test), 125 g ai/ha, scale 0 to 100, 0 is no effect, 100 is complete control, 13 to 15 days, read-out: Plant response rating, Barnyardgrass) was 75%, the “Barnyardgrass plant response rating” value [5, 14] was 0 and the plant injury at 125 g/ha ([6]; post-emergence, Postemergence, 0 to 100 scale where 0 is no effect and 100 is complete control, read-out: Plant response rating, Wheat) was 70%. It also gave a plant injury at 500 g/ha ([6]; post-emergence, Postemergence, visual injury, 0 to 100 scale (0 no effect, 100 complete control), approx. ten days, read-out: Wheat plant response rating) of 90%, a plant injury at 125 g/ha [6, 15] of 30% and a plant injury at 500 g/ha [6, 15] of 70%. For the same molecule, the pest or weed control at 125 g/ha ([7]; post-emergence, Postemergence, 0 to 100 scale where 0 is no effect and 100 is complete control, read-out: Plant response rating, Velvetleaf) was 100%, the pest or weed control at 500 g/ha ([7]; post-emergence, Postemergence, visual injury, 0 to 100 scale (0 no effect, 100 complete control), approx. ten days, read-out: Velvetleaf plant response rating) was 100% and the pest or weed control at 125 g/ha [7, 16] was 90%. The pest or weed control at 500 g/ha [7, 16] was 100%, the pest or weed control at 125 g/ha ([8]; post-emergence, Postemergence, 0 to 100 scale where 0 is no effect and 100 is complete control, read-out: Plant response rating, Foxtail, Giant) was 100% and the pest or weed control at 500 g/ha ([8]; post-emergence, Postemergence, visual injury, 0 to 100 scale (0 no effect, 100 complete control), approx. ten days, read-out: Foxtail, Giant plant response rating) was 100%. For the same molecule, the pest or weed control at 125 g/ha [8, 17] was 90%, the pest or weed control at 500 g/ha [8, 17] was 100% and the pest or weed control at 125 g/ha ([9]; post-emergence, Postemergence, 0 to 100 scale where 0 is no effect and 100 is complete control, read-out: Plant response rating, Crabgrass, Large) was 90%. The pest or weed control at 500 g/ha ([9]; post-emergence, Postemergence, visual injury, 0 to 100 scale (0 no effect, 100 complete control), approx. ten days, read-out: Crabgrass, Large plant response rating) was 90%, the pest or weed control at 125 g/ha [9, 18] was 100% and the pest or weed control at 500 g/ha [9, 18] was 100%. It also gave a pest or weed control at 125 g/ha ([10]; post-emergence, Postemergence, 0 to 100 scale where 0 is no effect and 100 is complete control, read-out: Plant response rating, Pigweed) of 100%, a pest or weed control at 500 g/ha ([10]; post-emergence, Postemergence, visual injury, 0 to 100 scale (0 no effect, 100 complete control), approx. ten days, read-out: Pigweed plant response rating) of 100% and a pest or weed control at 125 g/ha [10, 19] of 100%. For the same molecule, the pest or weed control at 500 g/ha [10, 19] was 100%, the pest or weed control at 125 g/ha ([11]; post-emergence, Postemergence, 0 to 100 scale where 0 is no effect and 100 is complete control, read-out: Plant response rating, Morningglory) was 100% and the pest or weed control at 500 g/ha ([11]; post-emergence, Postemergence, visual injury, 0 to 100 scale (0 no effect, 100 complete control), approx. ten days, read-out: Morningglory plant response rating) was 100%. It also gave a pest or weed control at 125 g/ha [11, 20] of 70%, a pest or weed control at 500 g/ha [11, 20] of 90% and a Corn plant response rating (crop injury, 0 = no effect, 100 = complete kill) at 125 g/ha ([12]; post-emergence, Postemergence, 0 to 100 scale where 0 is no effect and 100 is complete control) of 70%. For the same molecule, the plant injury at 500 g/ha ([12]; post-emergence, Postemergence, 500 g ai/ha, visual injury, 0 to 100 scale (0 no effect, 100 complete control), approx. ten days, read-out: Corn plant response rating) was 90%, the Corn plant response rating (crop injury, 0 = no effect, 100 = complete kill) at 125 g/ha ([12]; pre-emergence, Preemergence, 0 to 100 scale, 0 = no effect, 100 = complete control) was 30% and the Corn plant response rating (crop injury, 0 = no effect, 100 = complete kill) at 500 g/ha ([12]; pre-emergence, Preemergence, 500 g ai/ha, 0 to 100 scale, 0 = no effect, 100 = complete control) was 60%. The pest or weed control at 125 g/ha ([13]; post-emergence, Postemergence, 0 to 100 scale where 0 is no effect and 100 is complete control, read-out: Plant response rating, Barnyardgrass) was 100%, the pest or weed control at 500 g/ha ([13]; post-emergence, Postemergence, visual injury, 0 to 100 scale (0 no effect, 100 complete control), approx. ten days, read-out: Barnyardgrass plant response rating) was 100% and the pest or weed control at 125 g/ha [13, 21] was 70%. For the same molecule, the pest or weed control at 500 g/ha [13, 21] was 100%.
